Test results from the supplement of paper PMC10307832.

What was measured:
Assay in all cases: relative viability (nuclei count vs DMSO), 5 days (fraction); higher = more cells survive
[1] = system: LCLC-97TM1
In short: (§1)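 Lung cancer cell lines were seeded in 1536-well plates and dosed by pin tool the next day, with either a single drug or a fixed anchor-drug dose combined with five library-drug doses (not always all listed) spaced in √10 steps. Five days later, one step fixed the cells and stained their nuclei (final 0.05% Triton X-100, 1% formaldehyde, 1 ug/ml Hoechst), and nuclei were counted on 4× images. Relative viability is the nuclei count in treated wells divided by the count in vehicle wells, and each value is the median of duplicate plates.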

[2] = system: H3255
In short: as §1

[3] = system: NCI-H522
In short: as §1

[4] = system: NCI-H3122
In short: as §1

[5] = system: NCI-H441
In short: as §1

[6] = system: EKVX
In short: as §1

[7] = system: NCI-H1355
In short: as §1

[8] = system: HOP-62
In short: as §1

[9] = system: EPLC-272H
In short: as §1

[10] = system: HCC-827
In short: as §1

[11] = system: NCI-H1993
In short: as §1

[12] = system: SW 1573
In short: as §1

[13] = system: LU99A
In short: as §1

[14] = system: NCI-H2405
In short: as §1

[15] = system: NCI-H2170
In short: as §1

[16] = system: LXF-289
In short: as §1

[17] = system: SK-LU-1
In short: as §1

[18] = system: NCI-H2228
In short: as §1

[19] = system: PC-3 [JPC-3]
In short: as §1

[20] = system: LK-2
In short: as §1

[21] = system: ChaGo-K-1
In short: as §1

[22] = system: UMC-11
In short: as §1

[23] = system: NCI-H1650
In short: as §1

Compound: CN1CCN(CCOc2cc(OC3CCOCC3)c3c(Nc4c(Cl)ccc5c4OCO5)ncnc3c2)CC1 [Saracatinib] + Cc1nc(Nc2ncc(C(=O)Nc3c(C)cccc3Cl)s2)cc(N2CCN(CCO)CC2)n1 [Dasatinib] (partner 0.075 µM)
- relative viability ([1]; first compound 0.02 µM): 0.636
- relative viability ([1]; first compound 0.2 µM): 0.519
- relative viability ([1]; first compound 0.6325 µM): 0.723
- relative viability ([1]; first compound 2 µM): 0.33
- relative viability ([2]; first compound 0.02 µM): 0.389
- relative viability ([2]; first compound 0.2 µM): 0.303
- relative viability ([2]; first compound 0.6325 µM): 0.344
- relative viability ([2]; first compound 2 µM): 0.267
- relative viability ([3]; first compound 0.02 µM): 0.88
- relative viability ([3]; first compound 0.6325 µM): 0.864
- relative viability ([3]; first compound 2 µM): 0.8
- relative viability ([4]; first compound 0.02 µM): 0.879
- relative viability ([4]; first compound 0.2 µM): 0.666
- relative viability ([4]; first compound 0.6325 µM): 0.562
- relative viability ([4]; first compound 2 µM): 0.655
- relative viability ([5]; first compound 0.02 µM): 0.615
- relative viability ([5]; first compound 0.2 µM): 0.442
- relative viability ([5]; first compound 0.6325 µM): 0.715
- relative viability ([5]; first compound 2 µM): 0.549
- relative viability ([6]; first compound 0.02 µM): 0.5
- relative viability ([6]; first compound 0.2 µM): 0.363
- relative viability ([6]; first compound 0.6325 µM): 0.622
- relative viability ([6]; first compound 2 µM): 0.364
- relative viability ([7]; first compound 0.02 µM): 0.716
- relative viability ([7]; first compound 0.2 µM): 0.703
- relative viability ([7]; first compound 0.6325 µM): 0.774
- relative viability ([7]; first compound 2 µM): 0.731
- relative viability ([8]; first compound 0.02 µM): 0.757
- relative viability ([8]; first compound 0.2 µM): 0.663
- relative viability ([8]; first compound 0.6325 µM): 0.766
- relative viability ([8]; first compound 2 µM): 0.636
- relative viability ([9]; first compound 0.02 µM): 0.382
- relative viability ([9]; first compound 0.2 µM): 0.401
- relative viability ([9]; first compound 0.6325 µM): 0.375
- relative viability ([9]; first compound 2 µM): 0.307
- relative viability ([10]; first compound 0.02 µM): 0.3
- relative viability ([10]; first compound 0.2 µM): 0.136
- relative viability ([10]; first compound 0.6325 µM): 0.22
- relative viability ([10]; first compound 2 µM): 0.131
- relative viability ([11]; first compound 0.02 µM): 0.589
- relative viability ([11]; first compound 0.2 µM): 0.528
- relative viability ([11]; first compound 0.6325 µM): 0.527
- relative viability ([11]; first compound 2 µM): 0.501
- relative viability ([12]; first compound 0.02 µM): 0.463
- relative viability ([12]; first compound 0.2 µM): 0.454
- relative viability ([12]; first compound 0.6325 µM): 0.489
- relative viability ([12]; first compound 2 µM): 0.336
- relative viability ([13]; first compound 0.02 µM): 0.567
- relative viability ([13]; first compound 0.2 µM): 0.578
- relative viability ([13]; first compound 0.6325 µM): 0.652
- relative viability ([13]; first compound 2 µM): 0.558
- relative viability ([14]; first compound 0.02 µM): 0.22
- relative viability ([14]; first compound 0.2 µM): 0.223
- relative viability ([14]; first compound 0.6325 µM): 0.228
- relative viability ([14]; first compound 2 µM): 0.169
- relative viability ([15]; first compound 0.02 µM): 0.766
- relative viability ([15]; first compound 0.2 µM): 0.486
- relative viability ([15]; first compound 0.6325 µM): 0.548
- relative viability ([15]; first compound 2 µM): 0.265
- relative viability ([16]; first compound 0.02 µM): 0.224
- relative viability ([16]; first compound 0.2 µM): 0.218
- relative viability ([16]; first compound 0.6325 µM): 0.185
- relative viability ([16]; first compound 2 µM): 0.212
- relative viability ([17]; first compound 0.02 µM): 0.148
- relative viability ([17]; first compound 0.2 µM): 0.14
- relative viability ([17]; first compound 0.6325 µM): 0.138
- relative viability ([17]; first compound 2 µM): 0.146
- relative viability ([18]; first compound 0.02 µM): 0.501
- relative viability ([18]; first compound 0.2 µM): 0.556
- relative viability ([18]; first compound 0.6325 µM): 0.576
- relative viability ([18]; first compound 2 µM): 0.372
- relative viability ([19]; first compound 0.02 µM): 0.941
- relative viability ([19]; first compound 0.2 µM): 0.952
- relative viability ([19]; first compound 0.6325 µM): 0.682
- relative viability ([19]; first compound 2 µM): 0.595
- relative viability ([20]; first compound 0.02 µM): 0.275
- relative viability ([20]; first compound 0.2 µM): 0.288
- relative viability ([20]; first compound 0.6325 µM): 0.345
- relative viability ([20]; first compound 2 µM): 0.376
- relative viability ([21]; first compound 0.02 µM): 0.732
- relative viability ([21]; first compound 0.2 µM): 0.431
- relative viability ([21]; first compound 0.6325 µM): 0.657
- relative viability ([21]; first compound 2 µM): 0.459
- relative viability ([22]; first compound 0.02 µM): 0.471
- relative viability ([22]; first compound 0.6325 µM): 0.543
- relative viability ([22]; first compound 2 µM): 0.473
- relative viability ([23]; first compound 0.02 µM): 0.378
- relative viability ([23]; first compound 0.2 µM): 0.299
- relative viability ([23]; first compound 0.6325 µM): 0.359
- relative viability ([23]; first compound 2 µM): 0.371

Compound: CN1CCN(CCOc2cc(OC3CCOCC3)c3c(Nc4c(Cl)ccc5c4OCO5)ncnc3c2)CC1 [Saracatinib] + N=C(N)NC(=N)NCCc1ccccc1 [Phenformin] (partner 250 µM)
- relative viability ([1]; first compound 0.02 µM): 0.461
- relative viability ([1]; first compound 0.2 µM): 0.399
- relative viability ([1]; first compound 0.6325 µM): 0.469
- relative viability ([1]; first compound 2 µM): 0.413
- relative viability ([2]; first compound 0.02 µM): 0.354
- relative viability ([2]; first compound 0.2 µM): 0.33
- relative viability ([2]; first compound 0.6325 µM): 0.254
- relative viability ([2]; first compound 2 µM): 0.251
- relative viability ([3]; first compound 0.02 µM): 0.553
- relative viability ([3]; first compound 0.6325 µM): 0.639
- relative viability ([3]; first compound 2 µM): 0.612
- relative viability ([4]; first compound 0.02 µM): 0.385
- relative viability ([4]; first compound 0.2 µM): 0.248
- relative viability ([4]; first compound 0.6325 µM): 0.301
- relative viability ([4]; first compound 2 µM): 0.285
- relative viability ([5]; first compound 0.02 µM): 0.768
- relative viability ([5]; first compound 0.2 µM): 0.733
- relative viability ([5]; first compound 0.6325 µM): 1.17
- relative viability ([5]; first compound 2 µM): 0.819
- relative viability ([6]; first compound 0.02 µM): 0.26
- relative viability ([6]; first compound 0.6325 µM): 0.211
- relative viability ([6]; first compound 2 µM): 0.189
- relative viability ([7]; first compound 0.02 µM): 0.453
- relative viability ([7]; first compound 0.2 µM): 0.397
- relative viability ([7]; first compound 0.6325 µM): 0.453
- relative viability ([7]; first compound 2 µM): 0.407
- relative viability ([8]; first compound 0.02 µM): 0.661
- relative viability ([8]; first compound 0.2 µM): 0.629
- relative viability ([8]; first compound 0.6325 µM): 0.593
- relative viability ([8]; first compound 2 µM): 0.623
- relative viability ([9]; first compound 0.02 µM): 0.285
- relative viability ([9]; first compound 0.2 µM): 0.327
- relative viability ([9]; first compound 0.6325 µM): 0.319
- relative viability ([9]; first compound 2 µM): 0.251
- relative viability ([10]; first compound 0.02 µM): 0.4
- relative viability ([10]; first compound 0.2 µM): 0.221
- relative viability ([10]; first compound 0.6325 µM): 0.134
- relative viability ([10]; first compound 2 µM): 0.144
- relative viability ([11]; first compound 0.02 µM): 0.524
- relative viability ([11]; first compound 0.2 µM): 0.529
- relative viability ([11]; first compound 0.6325 µM): 0.512
- relative viability ([11]; first compound 2 µM): 0.555
- relative viability ([12]; first compound 0.02 µM): 0.537
- relative viability ([12]; first compound 0.2 µM): 0.382
- relative viability ([12]; first compound 0.6325 µM): 0.313
- relative viability ([12]; first compound 2 µM): 0.313
- relative viability ([13]; first compound 0.02 µM): 0.938
- relative viability ([13]; first compound 0.2 µM): 0.617
- relative viability ([13]; first compound 0.6325 µM): 0.879
- relative viability ([13]; first compound 2 µM): 0.707
- relative viability ([14]; first compound 0.02 µM): 0.406
- relative viability ([14]; first compound 0.2 µM): 0.328
- relative viability ([14]; first compound 0.6325 µM): 0.304
- relative viability ([14]; first compound 2 µM): 0.185
- relative viability ([15]; first compound 0.02 µM): 0.396
- relative viability ([15]; first compound 0.2 µM): 0.332
- relative viability ([15]; first compound 0.6325 µM): 0.352
- relative viability ([15]; first compound 2 µM): 0.295
- relative viability ([16]; first compound 0.02 µM): 0.546
- relative viability ([16]; first compound 0.2 µM): 0.486
- relative viability ([16]; first compound 0.6325 µM): 0.506
- relative viability ([16]; first compound 2 µM): 0.458
- relative viability ([17]; first compound 0.02 µM): 0.474
- relative viability ([17]; first compound 0.2 µM): 0.351
- relative viability ([17]; first compound 0.6325 µM): 0.25
- relative viability ([17]; first compound 2 µM): 0.209
- relative viability ([18]; first compound 0.02 µM): 0.345
- relative viability ([18]; first compound 0.2 µM): 0.327
- relative viability ([18]; first compound 0.6325 µM): 0.346
- relative viability ([18]; first compound 2 µM): 0.194
- relative viability ([19]; first compound 0.02 µM): 0.49
- relative viability ([19]; first compound 0.2 µM): 0.421
- relative viability ([19]; first compound 0.6325 µM): 0.421
- relative viability ([19]; first compound 2 µM): 0.339
- relative viability ([20]; first compound 0.02 µM): 0.545
- relative viability ([20]; first compound 0.2 µM): 0.368
- relative viability ([20]; first compound 0.6325 µM): 0.313
- relative viability ([20]; first compound 2 µM): 0.314
- relative viability ([21]; first compound 0.02 µM): 0.564
- relative viability ([21]; first compound 0.2 µM): 0.314
- relative viability ([21]; first compound 0.6325 µM): 0.447
- relative viability ([21]; first compound 2 µM): 0.381
- relative viability ([22]; first compound 0.02 µM): 0.341
- relative viability ([22]; first compound 0.6325 µM): 0.32
- relative viability ([22]; first compound 2 µM): 0.232
- relative viability ([23]; first compound 0.02 µM): 0.412
- relative viability ([23]; first compound 0.2 µM): 0.253
- relative viability ([23]; first compound 0.6325 µM): 0.317
- relative viability ([23]; first compound 2 µM): 0.295
